According to PubChem BioAssay (NCI):
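How tested: cells in 96-well plates exposed to compound for 48 hours at five concentrations. GI50 is the concentration that inhibits growth by half. The concentration for full growth arrest is given as TGI.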

Tests used:
Experiment in all cases: DTP human tumour cell line panel, 48 h
[1] = test system: 786-0 renal
[2] = test system: HCT-15 colon
[3] = test system: HS 578T breast
[4] = test system: EKVX NSCLC
[5] = test system: NCI-H460 lung
[6] = test system: SF-268 CNS
[7] = test system: ACHN renal
[8] = test system: SW-620 colon
[9] = test system: TK-10 renal
[10] = test system: OVCAR-5 ovarian
[11] = test system: SNB-75 CNS
[12] = test system: OVCAR-8 ovarian
[13] = test system: LOX IMVI melanoma
[14] = test system: DU-145 prostate
[15] = test system: SK-MEL-28 melanoma
[16] = test system: NCI-H226 lung
[17] = test system: A498 renal
[18] = test system: MALME-3M melanoma
[19] = test system: MDA-MB-231 breast
[20] = test system: IGROV1 ovarian
[21] = test system: HCT-116 colon
[22] = test system: CAKI-1 renal
[23] = test system: SN12C renal
[24] = test system: T-47D breast
[25] = test system: NCI-H23 lung
[26] = test system: RXF 393 renal
[27] = test system: COLO 205 colon
[28] = test system: SNB-19 CNS
[29] = test system: SF-539 CNS
[30] = test system: MOLT-4 leukemia
[31] = test system: SK-MEL-5 melanoma
[32] = test system: PC-3 prostate
[33] = test system: K-562 leukemia
[34] = test system: NCI/ADR-RES ovarian
[35] = test system: SK-OV-3 ovarian
[36] = test system: MDA-MB-435
[37] = test system: OVCAR-3 ovarian
[38] = test system: SR leukemia
[39] = test system: NCI-H522 lung
[40] = test system: SF-295 CNS
[41] = test system: M14 melanoma
[42] = test system: A549 NSCLC
[43] = test system: HL-60(TB) leukemia
[44] = test system: U251 CNS
[45] = test system: OVCAR-4 ovarian
[46] = test system: SK-MEL-2 melanoma
[47] = test system: HT29 colon
[48] = test system: UACC-62 melanoma
[49] = test system: UO-31 renal
[50] = test system: CCRF-CEM leukemia
[51] = test system: KM12 colon
[52] = test system: MCF7 breast
[53] = test system: BT-549 breast
[54] = test system: UACC-257 melanoma
[55] = test system: HOP-92 NSCLC
[56] = test system: HOP-62 NSCLC
[57] = test system: HCC-2998 colon
[58] = test system: RPMI-8226 leukemia

O=C1C[C@@H]2/C(=C(O)\C=C\c3ccccc3)C(=O)C=C[C@@H]2O1
GI50 [1]: 1.74 µM | TGI [1]: 3.49 µM | GI50 [2]: 1.3 µM | TGI [2]: 3.69 µM | GI50 [3]: 5.27 µM | TGI [3]: 60.5 µM | GI50 [4]: 13 µM | TGI [4]: 26 µM | GI50 [5]: 2.23 µM | TGI [5]: 7.18 µM | GI50 [6]: 2.09 µM | TGI [6]: 6.14 µM | GI50 [7]: 1.56 µM | TGI [7]: 3.29 µM | GI50 [8]: 0.485 µM | TGI [8]: 4.94 µM | GI50 [9]: 2.63 µM | TGI [9]: 7.59 µM | GI50 [10]: 1.93 µM | TGI [10]: 3.84 µM | GI50 [11]: 2.07 µM | TGI [11]: 5.78 µM | GI50 [12]: 3.06 µM | TGI [12]: 12.3 µM | GI50 [13]: 0.214 µM | TGI [13]: 0.485 µM | GI50 [14]: 0.515 µM | TGI [14]: 1.93 µM | GI50 [15]: 2.33 µM | TGI [15]: 6.56 µM | GI50 [16]: 1.94 µM | TGI [16]: 4.45 µM | GI50 [17]: 10.9 µM | TGI [17]: 23.1 µM | GI50 [18]: 1.42 µM | TGI [18]: 3 µM | GI50 [19]: 2.13 µM | TGI [19]: 4.21 µM | GI50 [20]: 0.385 µM | TGI [20]: 1.56 µM | GI50 [21]: 0.382 µM | TGI [21]: 1.6 µM | GI50 [22]: 2.35 µM | TGI [22]: 11.8 µM | GI50 [23]: 2.15 µM | TGI [23]: 5.64 µM | GI50 [24]: 0.905 µM | TGI [24]: 4.55 µM | GI50 [25]: 1.78 µM | TGI [25]: 3.95 µM | GI50 [26]: 1.47 µM | TGI [26]: 2.83 µM | GI50 [27]: 0.992 µM | TGI [27]: 2.62 µM | GI50 [28]: 9.03 µM | TGI [28]: 22.6 µM | GI50 [29]: 2.3 µM | TGI [29]: 8.35 µM | GI50 [30]: 1.85 µM | TGI [30]: 5.77 µM | GI50 [31]: 2.01 µM | TGI [31]: 4.82 µM | GI50 [32]: 1.95 µM | TGI [32]: 4.9 µM | GI50 [33]: 0.449 µM | TGI [33]: > 100 µM | GI50 [34]: 0.69 µM | TGI [34]: 3.4 µM | GI50 [35]: 4.86 µM | TGI [35]: 16.9 µM | GI50 [36]: 1.61 µM | TGI [36]: 3.49 µM | GI50 [37]: 0.497 µM | TGI [37]: 1.82 µM | GI50 [38]: 0.464 µM | TGI [38]: 17 µM | GI50 [39]: 0.206 µM | TGI [39]: 0.615 µM | GI50 [40]: 3.44 µM | TGI [40]: 13.7 µM | GI50 [41]: 0.435 µM | TGI [41]: 2.63 µM | GI50 [42]: 3.51 µM | TGI [42]: 12.8 µM | GI50 [43]: 1.57 µM | TGI [43]: 5.93 µM | GI50 [44]: 1.56 µM | TGI [44]: 3.41 µM | GI50 [45]: 3.64 µM | TGI [45]: 13 µM | GI50 [46]: 1.77 µM | TGI [46]: 3.56 µM | GI50 [47]: 0.844 µM | TGI [47]: 2.4 µM | GI50 [48]: 3 µM | TGI [48]: 12.2 µM | GI50 [49]: 0.878 µM | TGI [49]: 2.2 µM | GI50 [50]: 0.447 µM | TGI [50]: 2.89 µM | GI50 [51]: 0.505 µM | TGI [51]: 1.82 µM | GI50 [52]: 0.83 µM | TGI [52]: 13.5 µM | GI50 [53]: 2.84 µM | TGI [53]: 8.45 µM | GI50 [54]: 1.83 µM | TGI [54]: 3.9 µM | GI50 [55]: 1.59 µM | TGI [55]: 3.21 µM

Cc1cc(S(=O)(=O)[O-])ccc1-n1nc(C)[c-](N=Nc2cc(S(=O)(=O)[O-])ccc2C(=O)[O-])c1=O.[Cr+3].[Na+].[OH-] (configuration not stated)
GI50 [43]: 28.3 µM | GI50 [50]: 0.468 µM

COc1cc(/C=C/C(=O)C2(C(=O)/C=C/c3cc(OC)c(OC)c(OC)c3)CCCCC2)cc(OC)c1OC
TGI [1]: > 100 µM | TGI [2]: > 100 µM | TGI [3]: 89.8 µM | TGI [4]: > 100 µM | TGI [5]: > 100 µM | TGI [6]: > 100 µM | TGI [7]: > 100 µM | TGI [8]: > 100 µM | TGI [9]: > 100 µM | TGI [10]: > 100 µM | TGI [11]: > 100 µM | TGI [56]: > 100 µM | TGI [12]: 65.2 µM | TGI [13]: > 100 µM | TGI [14]: > 100 µM | TGI [15]: > 100 µM | TGI [57]: > 100 µM | TGI [16]: > 100 µM | TGI [17]: > 100 µM | TGI [18]: > 100 µM | TGI [19]: > 100 µM | TGI [20]: > 100 µM | TGI [21]: > 100 µM | TGI [22]: > 100 µM | TGI [58]: > 100 µM | TGI [23]: > 100 µM | TGI [24]: > 100 µM | TGI [25]: > 100 µM | TGI [27]: > 100 µM | TGI [28]: > 100 µM | TGI [29]: 47.8 µM | TGI [31]: > 100 µM | TGI [32]: > 100 µM | TGI [33]: > 100 µM | TGI [34]: > 100 µM | TGI [35]: > 100 µM | TGI [36]: 42.5 µM | TGI [37]: 58.4 µM | TGI [38]: > 100 µM | TGI [39]: 96.9 µM | TGI [40]: 89 µM | TGI [41]: 81.7 µM | TGI [42]: > 100 µM | TGI [43]: > 100 µM | TGI [44]: > 100 µM | TGI [45]: > 100 µM | TGI [46]: > 100 µM | TGI [47]: > 100 µM | TGI [48]: 53.8 µM | TGI [49]: > 100 µM | TGI [50]: > 100 µM | TGI [51]: 75.9 µM | TGI [52]: > 100 µM | TGI [53]: 91.9 µM | TGI [54]: > 100 µM | TGI [55]: 68 µM

C/C(=C\c1csc(C)n1)[C@@H]1C[C@@H]2O[C@]2(C)CCC[C@H](C)[C@H](O)[C@@H](C)C(=O)C(C)(C)[C@@H](O)CC(=O)O1
TGI [1]: > 100 µM | TGI [2]: 0.00447 µM | TGI [4]: > 100 µM | TGI [5]: > 100 µM | TGI [7]: > 100 µM | TGI [8]: 16.1 µM | TGI [9]: 44.8 µM | TGI [10]: > 100 µM | TGI [11]: < 0.0001 µM | TGI [14]: 0.000139 µM | TGI [57]: < 0.0001 µM | TGI [17]: 0.116 µM | TGI [18]: > 100 µM | TGI [20]: > 100 µM | TGI [21]: > 100 µM | TGI [23]: > 100 µM | TGI [24]: > 100 µM | TGI [26]: 0.00418 µM | TGI [27]: < 0.0001 µM | TGI [28]: > 100 µM | TGI [29]: < 0.0001 µM | TGI [32]: > 100 µM | TGI [33]: 0.274 µM | TGI [38]: < 0.0001 µM | TGI [39]: < 0.0001 µM | TGI [40]: < 0.0001 µM | TGI [42]: > 100 µM | TGI [43]: < 0.0001 µM | GI50 [45]: 60.1 µM | TGI [45]: > 100 µM | TGI [46]: 33.7 µM | TGI [47]: < 0.0001 µM | TGI [52]: 0.0112 µM | TGI [55]: 0.0263 µM
